# Laboratory results: patent US20080125318A1, “Fungicidal Mixtures Containing Enestroburin and at Least One Active Substance from the Group of Azoles” (priority 2004, published 2008)
# Read-outs that look alike come from different tables or passages of the source.
# Legend:
# Botrytis cinerea = assay: Activity against the gray mold pathogen Botrytis cinerea in the microtiter test; format: cell-based; conditions: day 7 after inoculation, absorption 405 nm
# Phytophthora infestans = format: cell-based; conditions: day 7 after inoculation, absorption 405 nm
# Puccinia recondita = assay: Protective activity against Puccinia recondita on wheat (brown rust of wheat), greenhouse; format: in vivo, Puccinia recondita on wheat seedlings cultivar Kanzler; conditions: sprayed 5 days before inoculation, visual rating
SMILES,Observed efficacy (%) (Botrytis cinerea; 4 ppm single active compound),Observed efficacy (%) (Phytophthora infestans; 2 ppm single active compound),Observed efficacy (%) (Phytophthora infestans; 4 ppm single active compound),Observed efficacy (%) (Puccinia recondita; 16 ppm single active compound),Observed efficacy (%) (Puccinia recondita; 63 ppm single active compound),Observed efficacy (%) (Puccinia recondita; 4 ppm single active compound),Observed efficacy (%) (Botrytis cinerea; 1 ppm single active compound)
"CO/C=C(/C(=O)OC)c1ccccc1CO/N=C(C)/C=C/c1ccc(Cl)cc1 [enestroburin (I), methyl 2-{2-[3-(4-chlorophenyl)-1-methylallylideneaminooxymethyl]phenyl}-3-methoxyacrylate]",48,70,82,22,44,,
"OC(Cc1ccccc1Cl)(Cn1nc[nH]c1=S)C1(Cl)CC1 (centres unmarked) [prothioconazole (II-19), 2-[2-(1-chlorocyclopropyl)-3-(2-chlorophenyl)-2-hydroxypropyl]-2,4-dihydro[1,2,4]triazol-3-thione]",,,,,,0,
"Cc1ccc(-c2c(Cl)nc(C#N)n2S(=O)(=O)N(C)C)cc1 [cyazofamid (II-30), 4-chloro-2-cyano-N,N-dimethyl-5-(4-methylphenyl)-1H-imidazole-1-sulfon-amide]",0,,,,,,0
